These results are taken from EP2970215B1, “PYRROLIDINE DERIVATIVES, PHARMACEUTICAL COMPOSITIONS CONTAINING THEM, AND THEIR USE IN THERAPY” (AbbVie Deutschland GmbH & Co. KG, priority 2013, dated 2014).

Structures are written as SMILES. Where only a bound is given, the exact number is not on record here.

The target of the assay is T1, human GlyT1c transporter (Homo sapiens, UniProt P48067).
T1 construct: expressed in transfected cells; host or cells: CHO cells (recombinant; line hGlyT1c_5_CHO is named for the uptake assay)
T1 sequence (P48067 1-706): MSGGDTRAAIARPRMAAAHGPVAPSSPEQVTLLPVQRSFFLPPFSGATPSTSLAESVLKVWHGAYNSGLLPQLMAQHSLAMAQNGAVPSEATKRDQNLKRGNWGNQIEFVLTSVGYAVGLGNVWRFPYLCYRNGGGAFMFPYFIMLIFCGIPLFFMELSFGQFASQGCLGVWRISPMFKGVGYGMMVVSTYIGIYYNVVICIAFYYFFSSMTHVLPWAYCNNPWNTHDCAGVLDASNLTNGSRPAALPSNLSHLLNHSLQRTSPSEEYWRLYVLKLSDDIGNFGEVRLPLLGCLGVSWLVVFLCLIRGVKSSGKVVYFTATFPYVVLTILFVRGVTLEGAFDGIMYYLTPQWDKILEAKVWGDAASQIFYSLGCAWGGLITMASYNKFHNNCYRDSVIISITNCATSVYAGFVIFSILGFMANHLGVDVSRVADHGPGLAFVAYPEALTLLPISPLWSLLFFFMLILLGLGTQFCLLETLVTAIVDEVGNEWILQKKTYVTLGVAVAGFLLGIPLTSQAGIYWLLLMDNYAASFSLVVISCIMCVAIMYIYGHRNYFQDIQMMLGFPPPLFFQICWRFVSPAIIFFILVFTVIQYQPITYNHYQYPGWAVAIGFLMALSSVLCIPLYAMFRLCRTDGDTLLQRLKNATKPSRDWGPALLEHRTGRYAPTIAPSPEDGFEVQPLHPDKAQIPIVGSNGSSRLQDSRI
Kind of assay: Radioligand binding assay using recombinant CHO cell membranes expressing human GlyT1. The source says: 2. Radioligand binding assays using recombinant CHO cell membranes expressing human GlyT1: […]

The mark [1] stands for this setting: radioligand binding to human GlyT1c transporter-expressing membranes.

Consider `CCCC(F)(F)CN[C@H]1CN(S(=O)(=O)c2cn(C)cn2)C[C@@H]1c1ccc(F)cc1` [Example 734, (3R,4S)-N-(2,2-difluoropentyl)-4-(4-fluorophenyl)-1-[(1-methyl-1H-imidazol-4-yl)sulfonyl]pyrrolidin-3-amine], for which the Ki under setting [1] was no more than 0.1 µM.

As to `Cn1cnc(S(=O)(=O)N2C[C@@H](NC(=O)c3cccc(C(F)(F)F)c3)[C@H](c3ccccc3)C2)c1` (relative stereo) [Example 36, N-{trans-1-[(1-methyl-1H-imidazol-4-yl)sulfonyl]-4-phenylpyrrolidin-3-yl}-3-(trifluoromethyl)benzamide], under setting [1], the Ki was no more than 1 µM.

`Cn1cnc(S(=O)(=O)N2C[C@@H](Nc3cccc(C(F)(F)F)n3)[C@H](c3cccc(F)c3)C2)c1` (relative stereo) [Example 195, N-{trans-4-(3-fluorophenyl)-1-[(1-methyl-1H-imidazol-4-yl)sulfonyl]pyrrolidin-3-yl} -6-(trifluoromethyl)pyridin-2-amine]: the Ki under setting [1] is no more than 10 µM.

Regarding `Cn1cnc(S(=O)(=O)N2C[C@H](NCC3CCC(C(F)(F)F)CC3)[C@@H](c3ccc(F)cc3)C2)c1` (stereo partly drawn) [Example 707, (3R,4S)-4-(4-fluorophenyl)-1-[(1-methyl-1H-imidazol-4-yl)sulfonyl]-N-{[4-(trifluoromethyl)cyclohexyl]methyl}pyrrolidin-3-amine], the Ki under setting [1] was no more than 1 µM.

As for `Cn1cnc(S(=O)(=O)N2C[C@@H](Nc3cc(C(F)(F)F)ncn3)[C@H](c3ncccc3F)C2)c1` (relative stereo) [Example 770, N-{Trans-4-(3-fluoropyridin-2-yl)-1-[(1-methyl-1H-imidazol-4-yl)sulfonyl]pyrrolidin-3-yl}-6-(trifluoromethyl)pyrimidin-4-amine], under setting [1], the Ki is no more than 1 µM.

With `CCC/C=C/CN[C@H]1CN(S(=O)(=O)c2cn(C)cn2)C[C@@H]1c1ccccc1` [Example 547, (3R,4S)-N-[(2E)-hex-2-en-1-yl]-1-[(1-methyl-1H-imidazol-4-yl)sulfonyl]-4-phenylpyrrolidin-3-amine], the Ki under setting [1] is no more than 0.1 µM.

As to `Cc1nc(Cl)cc(N[C@H]2CN(S(=O)(=O)c3cn(C)cn3)C[C@@H]2c2ccc(F)cc2)n1` [Example 690, 6-chloro-N-{(3R,4S)-4-(4-fluorophenyl)-1-[(1-methyl-1H-imidazol-4-yl)sulfonyl]pyrrolidin-3-yl}-2-methylpyrimidin-4-amine], the Ki under setting [1] is no more than 1 µM.

Consider `Cc1cccc(-c2cc(N[C@H]3CN(S(=O)(=O)c4cn(C)cn4)C[C@@H]3c3ccc(F)cc3)ncn2)c1` [Example 724, N-{(3R,4S)-4-(4-fluorophenyl)-1-[(1-methyl-1H-imidazol-4-yl)sulfonyl]pyrrolidin-3-yl}-6-(3-methylphenyl)pyrimidin-4-amine], for which the Ki under setting [1] was no more than 0.1 µM.

Regarding `CCc1oc2ccccc2c1CN[C@H]1CN(S(=O)(=O)c2cn(C)cn2)C[C@@H]1c1ccccc1` [Example 534, (3R,4S)-N-[(2-ethyl-1-benzofuran-3-yl)methyl]-1-[(1-methyl-1H-imidazol-4-yl)sulfonyl]-4-phenylpyrrolidin-3-amine], under setting [1], the Ki is no more than 1 µM.

For the compound `Cn1cnc(S(=O)(=O)N2C[C@H](Nc3cccc(C(F)(F)F)c3)[C@@H](c3ccccc3)C2)c1` [Example 397, (3R,4S)-1-[(1-methyl-1H-imidazol-4-yl)sulfonyl]-4-phenyl-N-[3-(trifluoromethyl)phenyl]pyrrolidin-3-amine], under setting [1], the Ki is no more than 0.01 µM.

Take `Cc1nn(C)c(Cl)c1S(=O)(=O)N1C[C@@H](NC(=O)c2cccc(C(F)(F)F)c2Cl)[C@H](c2ccccc2)C1` (relative stereo) [Example 40, 2-chloro-N-{trans-1-[(5-chloro-1,3-dimethyl-1H-pyrazol-4-yl)sulfonyl]-4-phenylpyrrolidin-3-yl}-3-(trifluoromethyl)benzamide]: the Ki under setting [1] was no less than 10 µM.

As to `Cc1cccc(NC[C@@H]2CN(S(=O)(=O)c3cn(C)cn3)C[C@H]2c2ccc(F)cc2)c1` (relative stereo) [Example 334, N-({Trans-4-(4-fluorophenyl)-1-[(1-methyl-1H-imidazol-4-yl)sulfonyl]pyrrolidin-3-yl}methyl)-3-methylaniline], the Ki under setting [1] was no more than 1 µM.

For the compound `Cn1cnc(S(=O)(=O)N2C[C@@H](C(=O)Nc3ccc(C(F)(F)F)cc3)[C@H](c3ccc(F)cc3)C2)c1` (relative stereo) [Example 243, Trans-4-(4-fluorophenyl)-1-[(1-methyl-1H-imidazol-4-yl)sulfonyl]-N-[4-(trifluoromethyl)phenyl]pyrrolidine-3-carboxamide], the Ki under setting [1] was no more than 1 µM.

Turning to `Cn1cnc(S(=O)(=O)N2C[C@@H](Nc3ccc(F)c(Cl)c3)[C@H](C3CCCO3)C2)c1` (relative stereo) [Example 824, Trans-N-(3-chloro-4-fluorophenyl)-1-[(1-methyl-1H-imidazol-4-yl)sulfonyl]-4-(tetrahydrofuran-2-yl)pyrrolidin-3-amine], the Ki (radioligand binding, recombinant CHO cell membranes expressing human GlyT1c) is no more than 1 µM.

Consider `Cc1cc(N[C@@H]2CN(S(=O)(=O)c3cn(C)cn3)C[C@H]2c2ncccc2F)ncc1F` (relative stereo) [Example 769, 5-fluoro-N-{trans-4-(3-fluoropyridin-2-yl)-1-[(1-methyl-1H-imidazol-4-yl)sulfonyl]pyrrolidin-3-yl}-4-methylpyridin-2-amine], for which the inhibition constant Ki under setting [1] was no more than 1 µM.

On to `Cn1cnc(S(=O)(=O)N2C[C@H](Nc3cc(Cl)ncn3)[C@@H](c3ccccc3)C2)c1` [Example 606, 6-chloro-N-{(3R,4S)-1-[(1-methyl-1H-imidazol-4-yl)sulfonyl]-4-phenylpyrrolidin-3-yl}pyrimidin-4-amine], for which the Ki under setting [1] is no more than 0.1 µM.

Turning to `Cc1ccc(CN[C@@H]2CN(S(=O)(=O)c3cn(C)cn3)C[C@H]2c2ccc(F)cc2)cc1` (relative stereo) [Example 155, trans-4-(4-fluorophenyl)-N-(4-methylbenzyl)-1-[(1-methyl-1H-imidazol-4-yl)sulfonyl]pyrrolidin-3-amine], the Ki under setting [1] is no more than 0.1 µM.

Consider `Cn1cnc(S(=O)(=O)N2C[C@@H](Nc3ccc4ccncc4c3)[C@H](c3ccccc3)C2)c1` (relative stereo) [Example 241, N-{trans-1-[(1-methyl-1H-imidazol-4-yl)sulfonyl]-4-phenylpyrrolidin-3-yl}isoquinolin-7-amine], for which the Ki under setting [1] was no more than 10 µM.

Regarding `Cn1cnc(S(=O)(=O)N2C[C@@H](Nc3cccc(Cl)c3)[C@H](C3CCCOC3)C2)c1` (relative stereo) [Example 783, trans -N-(3-chlorophenyl)-1-[(1-methyl-1H-imidazol-4-yl)sulfonyl] -4-(tetrahydro-2H-pyran-3 - yl)pyrrolidin-3-amine], the Ki under setting [1] is no more than 1 µM.

`Cn1cnc(S(=O)(=O)N2C[C@@H](NCc3ccc(C(F)(F)F)cc3Cl)[C@H](c3ccccc3)C2)c1` (relative stereo) [Example 281, trans-N-[2-chloro-4-(trifluoromethyl)benzyl]-1-[(1-methyl-1H-imidazol-4-yl)sulfonyl]-4-phenylpyrrolidin-3-amine]: the Ki under setting [1] was no more than 0.01 µM.

As for `COc1ccc(S(=O)(=O)N2C[C@@H](Nc3cccc(C#N)c3)[C@H](c3ccccc3)C2)cc1` (relative stereo) [Example 137, 3-({trans-1-[(4-methoxyphenyl)sulfonyl]-4-phenylpyrrolidin-3-yl}amino)benzonitrile], the Ki under setting [1] was no more than 10 µM.

Take `Cn1cnc(S(=O)(=O)N2C[C@@H](CNCC3CC3)[C@H](c3ccc(F)cc3)C2)c1` [Example 607, 1-cyclopropyl-N-({(3R,4R)-4-(4-fluorophenyl)-1-[(1-methyl-1H-imidazol-4-yl)sulfonyl]pyrrolidin-3-yl}methyl)methanamine]: the Ki under setting [1] was no more than 10 µM.

For the compound `Cn1cnc(S(=O)(=O)N2C[C@@H](Oc3cc(C(F)(F)F)ccn3)[C@H](c3ccc(F)cc3)C2)c1` (relative stereo) [Example 379, 2-({trans-4-(4-fluorophenyl)-1-[(1-methyl-1H-imidazol-4-yl)sulfonyl]pyrrolidin-3-yl}oxy)-4-(trifluoromethyl)pyridine], the Ki under setting [1] was no more than 0.1 µM.

In the case of `Cc1nn(C(F)F)c(C)c1S(=O)(=O)N1C[C@@H](NC(=O)c2cccc(C(F)(F)F)c2Cl)[C@H](c2ccccc2)C1` (relative stereo) [Example 39, 2-chloro-N-[trans-1-{[1-(difluoromethyl)-3,5-dimethyl-1H-pyrazol-4-yl]sulfonyl}-4-phenylpyrrolidin-3-yl]-3-(trifluoromethyl)benzamide], under setting [1], the Ki is no more than 10 µM.

Consider `Cn1cnc(S(=O)(=O)N2C[C@@H](Nc3cc(C(F)(F)F)ccn3)[C@H](c3ccccc3)C2)c1` (relative stereo) [Example 212, N-{trans-1-[(1-methyl-1H-imidazol-4-yl)sulfonyl]-4-phenylpyrrolidin-3-yl}-4-(trifluoromethyl)pyridin-2-amine], for which, under setting [1], the Ki was no more than 0.1 µM.

On to `O=S(=O)(c1ccc2c(c1)CCO2)N1CC(Nc2ccc(F)c(F)c2)C(c2ccccc2)C1` (centres unmarked) [Example 519, N-(3,4-difluorophenyl)-1-(2,3-dihydro-1-benzofuran-5-ylsulfonyl)-4-phenylpyrrolidin-3-amine], for which the Ki under setting [1] is greater than 10 µM.
